# T1: LBD of Nor1 (Homo sapiens, UniProt Q92570)
# T1 construct: GST-LBD of Nor1 was expressed in E. coli and purified; GST (N); made in house; host or cells: E. coli
# T1 sequence (Q92570 394-623 limits assumed): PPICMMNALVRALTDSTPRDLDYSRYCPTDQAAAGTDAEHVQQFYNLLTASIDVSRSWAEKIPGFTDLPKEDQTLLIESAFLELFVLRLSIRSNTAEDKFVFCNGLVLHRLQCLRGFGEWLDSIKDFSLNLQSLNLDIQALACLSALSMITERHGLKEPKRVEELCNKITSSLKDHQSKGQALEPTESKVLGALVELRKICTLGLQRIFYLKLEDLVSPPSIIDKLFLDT
# How the values were obtained:
# [1] = target: T2, full-length NOR-1 (MINOR) (Homo sapiens, UniProt Q92570); test: Mammalian Two Hybrid luciferase reporter, GAL4-full-length Nor1 construct; type: cell-based; conditions: for Full length Nor1-ligand activity RXR(+) / Full length Nor1-ligand activity RXR(−): NIH3T3 cells, luciferase; for Full length Nor1-ligand activity RXR(+): with RXRα; for function of enhancing the transcriptional activation ability of NOR-1 (MINOR): luciferase reporter system; for Full length Nor1-ligand activity RXR(−): without RXRα
# T2 construct: Full length Nor1-; expressed in transfected cells; host or cells: NIH3T3
# T2 sequence (Q92570 whole entry, the tested form may be a part): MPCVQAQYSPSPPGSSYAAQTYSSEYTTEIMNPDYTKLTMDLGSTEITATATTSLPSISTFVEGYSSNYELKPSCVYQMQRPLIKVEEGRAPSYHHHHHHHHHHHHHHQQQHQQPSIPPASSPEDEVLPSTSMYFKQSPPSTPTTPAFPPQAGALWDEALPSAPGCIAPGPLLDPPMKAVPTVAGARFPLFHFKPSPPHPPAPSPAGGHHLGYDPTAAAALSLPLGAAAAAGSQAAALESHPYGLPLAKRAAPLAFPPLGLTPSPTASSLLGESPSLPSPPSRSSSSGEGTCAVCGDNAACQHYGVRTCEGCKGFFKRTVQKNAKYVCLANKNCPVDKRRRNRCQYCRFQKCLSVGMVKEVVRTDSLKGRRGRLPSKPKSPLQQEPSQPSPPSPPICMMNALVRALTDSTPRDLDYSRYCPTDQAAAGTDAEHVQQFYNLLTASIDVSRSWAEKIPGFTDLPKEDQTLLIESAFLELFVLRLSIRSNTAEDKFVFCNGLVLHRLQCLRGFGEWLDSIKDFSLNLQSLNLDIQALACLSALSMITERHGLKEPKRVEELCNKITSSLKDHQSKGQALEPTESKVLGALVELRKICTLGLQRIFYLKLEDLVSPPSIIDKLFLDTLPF
# Experimental: A full-length gene or the ligand-binding site of NOR-1 is inserted into X, and the full-length gene of the retinoic acid X receptor (RXR)α is inserted into Y. These constructs are transfected into NIH3T3 cells, and the activity of induced luciferase is measured.
# Mammalian Two Hybrid system was slightly modified. […] Actually, activity could not be detected for lipid-soluble metabolites existing on the metabolic map of mammals that might be natural ligands of NOR-1 in a screening system wherein only the ligand-binding domain was inserted. A plasmid wherein the full-length gene of NOR-1 (MINOR) had been inserted into pBIND and a luciferase reporter plasmid containing a GAL4 binding site were cotransfected into NIH3T3 cells, and the luciferase activity was measured automatically. By further addition of small molecule substances to this system enables screening of ligands by their transcription enhancing activity.
# NOR-1 (MINOR) expression is induced under conditions where the leukocytes are hyperactive, such as in atopic dermatitis peripheral blood, and apoptosis of cells is very likely to occur as a result of this induced NOR-1 (MINOR) expression. Ligands existing in vivo may exist at sites where nuclear receptors are highly expressed. Therefore, small-molecule lipid-soluble mediators that are expected to be produced under such conditions were added to the assay system as candidate ligands to evaluate their luciferase activity enhancing function. […] Thus, the method established by the present inventors opened a way to discover native ligands and synthetic ligands of NOR-1 (MINOR) by high throughput.
# LBD of Nor1 = target: T1, LBD of Nor1; test: BIAcor S51 binding to GST-LBD of Nor1; conditions: BIAcor S51, comparison with GST
# Text: Glutathione S-transferase (GST) was used as a comparison control and 13,14-Dihydro-15-keto-PGA2 as a negative control.
# In the present invention, as a means for detecting or measuring bound compound, a biosensor utilizing surface plasmon resonance phenomenon may be used. A biosensor (for example, BIAcore, Pharmacia) utilizing the surface plasmon resonance phenomenon allows real-time observation of the interaction between the NOR-1 protein and a test compound as a surface plasmon resonance signal. Therefore, using biosensors such as BIAcore, the binding between the NOR-1 protein and the test compound can be evaluated.
# [2] = system: Nor1 gene that completely lacked the LBD region (ΔLBD); test: Mammalian Two Hybrid reporter with LBD deletion mutant of Nor1; type: cell-based, human; conditions: Nor1 lacking the LBD region
# Text: Therefore, prostaglandin A2 was implicated to function by actually acting on the LBD region of the nuclear receptor.
# [3] = system: Nor1 expression in peripheral blood eosinophils; test: Nor1 expression induction in cultured peripheral blood eosinophils; type: cell-based, human; conditions: cultured peripheral blood eosinophils from healthy subjects
# Text: Values collected for beta-actin and GAPDH are shown.
# A large amount of peripheral blood eosinophils were collected from healthy subjects, and cultured in suspension in a petri dish while suppressing their activation. […] The anti-CD30 antibody that has an agonistic activity against eosinophilic CD30 has recently been receiving attention, because it induces apoptosis of eosinophils via a specific intracellular pathway and may serve as a therapeutic agent for asthma.
# Thus, the apoptosis by anti-CD30 antibody accompanied by induction of Nor1 may occur through an eosinophil-specific apoptosis pathway that is different from the conventional pathway.
Molecule,Full length Nor1-ligand activity RXR(+) [1],Full length Nor1-ligand activity RXR(+) ([1]; symbol),Full length Nor1-ligand activity RXR(−) [1],Full length Nor1-ligand activity RXR(−) ([1]; symbol),function of enhancing the transcriptional activation ability of NOR-1 (MINOR) [1],binding to the LBD of Nor1 (LBD of Nor1),transcriptional activity with LBD deletion mutant [2],induction of Nor1 [3]
"CCCCCC(=O)CC[C@H]1C=CC(=O)[C@@H]1C/C=C\CCCC(=O)O [13,14-dihydro-15-keto Prostaglandin A2]",–,–,–,–,did not show any activity in the reporter system,did not bind to LBD,–,–
CCCCC[C@@](C)(O)/C=C/[C@H]1C=CC(=O)[C@@H]1C/C=C\CCCC(=O)O [15(R)-15-methyl Prostaglandin A2],10 µM,∘,10 µM,∘,enhancing the transcriptional activation ability of NOR-1 (MINOR),–,–,–
"CCCCC/C=C\C=C1\C(=O)C=C[C@@H]1C/C=C\CCCC(=O)O [15-dioxy-Δ^12,14-Prostaglandin J2]",10 µM,∘,–,–,–,–,–,–
"CCCCC(C)(C)[C@H](O)/C=C/[C@H]1C=CC(=O)[C@@H]1C/C=C\CCCC(=O)O [16,16-dimethyl Prostaglandin A2]",5 µM,∘,5 µM,∘,–,–,–,–
O=C(O)CCC/C=C\C[C@H]1C(=O)C=C[C@@H]1/C=C/[C@@H](O)COc1ccccc1 [16-phenoxy tetranor Prostaglandin A2],30 µM,∘,30 µM,∘,enhancing the transcriptional activation ability of NOR-1 (MINOR),–,–,–
O=C(O)CCC/C=C\C[C@H]1C(=O)C=C[C@@H]1/C=C/[C@@H](O)CCc1ccccc1 [17-phenyl trinor Prostaglandin A2],10 µM,∘,10 µM,∘,enhancing the transcriptional activation ability of NOR-1 (MINOR),–,–,–
IL-5: cytokine used to activate eosinophils,–,–,–,–,–,–,–,did not lead to the induction of Nor1
"IL-4: cytokine used to activate eosinophils (protein, UniProt P05112 25-153, looked up) Interleukin-4: HKCDITLQEIIKTLNSLTEQKTLCTELTVTDIFAASKNTTEKETFCRAATVLRQFYSHHEKDTRCLGATAQQFHRHKQLIRFLKRLDRNLWGLAGLNSCPVKEANQSTLENFLERLKTIMREKYSKCSS",–,–,–,–,–,–,–,did not lead to the induction of Nor1

# Second part, led by results:
Full length Nor1-ligand activity RXR(+) [1],Full length Nor1-ligand activity RXR(+) ([1]; symbol),Full length Nor1-ligand activity RXR(−) [1],Full length Nor1-ligand activity RXR(−) ([1]; symbol),Molecule,function of enhancing the transcriptional activation ability of NOR-1 (MINOR) [1],binding to the LBD of Nor1 (LBD of Nor1),transcriptional activity with LBD deletion mutant [2],induction of Nor1 [3]
10 µM,∘,–,–,CCCCC[C@H](O)/C=C/[C@H]1C=CC(=O)[C@H]1CCCCCCC(=O)O [8-iso Prostaglandin A1],–,–,–,–
10 µM,∘,10 µM,∘,CCCCC[C@H](O)/C=C/[C@H]1C=CC(=O)[C@@H]1CCCCCCC(=O)O [Prostaglandin A1],enhancing the transcriptional activation ability of NOR-1 (MINOR),binding of PGA1 and PGA2 to the LBD of Nor1 was detected,–,–
10 µM,∘,10 µM,∘,CCCCC[C@H](O)/C=C/[C@H]1C=CC(=O)[C@@H]1C/C=C\CCCC(=O)O [Prostaglandin A2],enhancing the transcriptional activation ability of NOR-1 (MINOR),binding of PGA1 and PGA2 to the LBD of Nor1 was detected,remarkable suppression of the transcriptional activity,–
